In patent publication US20110190272A1, “CHEMICAL COMPOUNDS” (ASTRAZENECA AB, priority 2008, published 2011):

These molecules were tested against T1, CSF-1R (Homo sapiens, UniProt P07333) (assay: Assay 1: CSF-1R In Vitro AlphaScreen Assay). Conditions: purified His-tagged kinase domain of CSF-1R, 90 μM ATP.
T1 construct: The His-tagged kinase domain of CSF-1R (i.e., amino acids 568-912, GeneBank ID NM_005211); His; made in house; host or cells: baculovirus infected SF+Express insect cells
T1 sequence (P07333 568-912): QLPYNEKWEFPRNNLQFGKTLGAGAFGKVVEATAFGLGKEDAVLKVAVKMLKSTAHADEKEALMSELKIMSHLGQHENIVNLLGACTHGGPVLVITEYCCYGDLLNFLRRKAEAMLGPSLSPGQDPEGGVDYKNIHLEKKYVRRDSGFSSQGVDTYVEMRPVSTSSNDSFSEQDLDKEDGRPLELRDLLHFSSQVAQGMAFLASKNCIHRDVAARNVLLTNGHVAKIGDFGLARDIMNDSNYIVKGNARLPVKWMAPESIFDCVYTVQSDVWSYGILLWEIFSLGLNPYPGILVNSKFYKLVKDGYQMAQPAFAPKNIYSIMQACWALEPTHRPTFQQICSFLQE
Type: biochemical
Protocol: The phosphorylation of the CSF-1R substrate in the presence and absence of the compound of interest was determined. […] Plates were incubated at 25° C. for 18 hours in the dark. Phosphorylated substrate was detected by an EnVision plate reader (Perkin Elmer) 680 nm excitation, 520-620 nm emission. Data was graphed and IC50s calculated using Excel Fit (Microsoft).

| IC50 [nM] | SMILES |
| --- | --- |
| < 3 | COc1cc2nnc(C(N)=O)c(Nc3cccc(Cl)c3F)c2cc1OC [Example 3, 4-[(3-Chloro-2-fluorophenyl)amino]-6,7-dimethoxycinnoline-3-carboxamide] |

Each molecule was assayed against T1, CSF-1R (assay: Assay 2: CSF1R In-Vitro AlphaScreen Assay). Conditions: purified His-tagged kinase domain of CSF-1R, 12 mM ATP in mix.
Type: biochemical
Protocol: Assay 2: CSF1R In-Vitro AlphaScreen Assay
Activity of purified CSF-1R was determined in-vitro using an Amplified Luminescent Proximity Homogeneous Assay (ALPHA) (Perkin Elmer, Mass.), which measures phosphorylation of CSF-1R substrate, biotinylated […] peptide (pEY-HTRF CisBio 61GT0BLD), as described below. The His-tagged kinase domain of CSF-1R (i.e., amino acids 568-912, GeneBank ID NM_005211) was purified from baculovirus infected SF+Express insect cells (1.4×10^6 cells/ml), French pressed and chromatographed through subsequent QIAgen Ni-NTA, Superflow Mono Q HR 10/10, and Superdex 200 SEC columns.
The phosphorylation of the CSF-1R substrate in the presence and absence of the compound of interest was determined. Briefly, 5 ul of Enzyme/Substrate/adenosine triphosphate (ATP) mix consisting of 0.46 nM of purified CSF-1R, 12 nM pEY substrate, and 12 mM ATP in 1.2× buffer was preincubated with 2 ul of compound for 20 minutes at 25° C. Reactions were initiated with 5 ul of Metal mix consisting of 24 mM MgCl2 in 1.2× buffer and incubated at 25° C. for 90 minutes and reactions were stopped by addition of 5 ul of Detection mix consisting of 20 mM HEPES, 102 mM ethylenediamine tetraacetic acid, 1.65 mg/ml BSA, 136 mM NaCl, 40 ug/ml Streptavidin donor beads (Perkin Elmer, Mass., Catalog #6760002), and 40 ug/ml phosphotyrosine-specific antibody coated acceptor beads (Perkin Elmer, Mass., Catalog #6760620). Plates were incubated at 25° C. for 18 hours in the dark. Phosphorylated substrate was detected by an EnVision plate reader (Perkin Elmer) 680 nm excitation, 520-620 nm emission. Data was graphed and IC50s calculated using Excel Fit (Microsoft).

| SMILES | IC50 [nM] |
| --- | --- |
| COc1cc2nnc(C(N)=O)c(Nc3ccc(C)cc3F)c2cc1C1CCN(CC(F)F)CC1 [Example 71, 6-[1-(2,2-Difluoroethyl)piperidin-4-yl]-4-[(2-fluoro-4-methylphenyl)amino]-7-methoxycinnoline-3-carboxamide] | 39 |
| Cc1ccc(Nc2c(C(N)=O)nnc3cc(N4CCN(C)CC4)ccc23)c(F)c1 [Example 55, 4-[(2-Fluoro-4-methylphenyl)amino]-7-(4-methylpiperazin-1-yl)cinnoline-3-carboxamide] | 3 |
| COc1cc2nnc(C(N)=O)c(Nc3ccc(C)cc3F)c2cc1C1CCN(C(=O)[C@H](C)O)CC1 [Example 70, 4-[(2-Fluoro-4-methylphenyl)amino]-6-{1-[(2S)-2-hydroxypropanoyl]piperidin-4-yl}-7-methoxycinnoline-3-carboxamide] | 24 |
| Cc1ccc(Nc2c(C(N)=O)nnc3cc(N4CCN(S(C)(=O)=O)CC4)ccc23)c(F)c1 [Example 56, 4-[(2-Fluoro-4-methylphenyl)amino]-7-[4-(methylsulfonyl)piperazin-1-yl]cinnoline-3-carboxamide] | 11 |
| COc1cc2nnc(C(N)=O)c(Nc3ccc(C)cc3F)c2cc1N1C[C@@H](C)N(C(C)=O)[C@@H](C)C1 [Example 72, 6-[(3R,55)-4-Acetyl-3,5-dimethylpiperazin-1-yl]-4-[(2-fluoro-4-methylphenyl)amino]-7-methoxycinnoline-3-carboxamide] | 52 |

Continued, values first:

| IC50 [nM] | SMILES |
| --- | --- |
| 39 | COCCOC1CCN(c2cc3c(Nc4ccc(C)cc4F)c(C(N)=O)nnc3cc2OC)CC1 [Example 60, 4-[(2-Fluoro-4-methylphenyl)amino]-7-methoxy-6-[4-(2-methoxyethoxy)piperidin-1-yl]cinnoline-3-carboxamide] |
| 8 | Cc1ccc(Nc2c(C(N)=O)nnc3cc(N4CCN(CCO)CC4)ccc23)c(F)c1 [Example 57, 4-[(2-Fluoro-4-methylphenyl)amino]-7-[4-(2-hydroxyethyl)piperazin-1-yl]cinnoline-3-carboxamide] |
| 6 | COc1cc2nnc(C(N)=O)c(Nc3ccc(C)cc3F)c2cc1N1CCN(CCS(C)(=O)=O)CC1 [Example 65, 4-[(2-Fluoro-4-methylphenyl)amino]-7-methoxy-6-{4-[2-(methylsulfonyl)ethyl]piperazin-1-yl}cinnoline-3-carboxamide] |
| 23 | COc1cc2nnc(C(N)=O)c(Nc3ccc(C)cc3F)c2cc1N1CCN(C(=O)C(C)(C)O)CC1 [Example 69, 4-[(2-Fluoro-4-methylphenyl)amino]-6-[4-(2-hydroxy-2-methylpropanoyl)piperazin-1-yl]-7-methoxycinnoline-3-carboxamide] |
| < 3 | COc1cc2nnc(C(N)=O)c(Nc3ccc(C)cc3F)c2cc1N1CC[C@H](N(C)C)C1 [Example 41, 6-[(3S)-3-(Dimethylamino)pyrrolidin-1-yl]-4-[(2-fluoro-4-methylphenyl)amino]-7-methoxycinnoline-3-carboxamide] |
| 5 | COc1cc2nnc(C(N)=O)c(Nc3ccc(C)cc3F)c2cc1N1CCN(C[C@H](O)CO)CC1 [Example 67, 6-{4-[(25)-2,3-Dihydroxypropyl]piperazin-1-yl}-4-[(2-fluoro-4-methylphenyl)amino]-7-methoxycinnoline-3-carboxamide] |
| 12 | COc1cc2nnc(C(N)=O)c(Nc3ccc(C)cc3F)c2cc1N1C[C@@H](C)N(CCO)[C@@H](C)C1 [Example 63, 4-[(2-Fluoro-4-methylphenyl)amino]-6-[(3R,5S)-4-(2-hydroxyethyl)-3,5-dimethylpiperazin-1-yl]-7-methoxycinnoline-3-carboxamide] |
| 4 | COc1cc2nnc(C(N)=O)c(Nc3ccc(C)cc3F)c2cc1N1CCN(C(CO)CO)CC1 [Example 66, 4-[(2-Fluoro-4-methylphenyl)amino]-6-{4-[2-hydroxy-1-(hydroxymethyl)ethyl]piperazin-1-yl}-7-methoxycinnoline-3-carboxamide] |
| 6 | COc1cc2nnc(C(N)=O)c(Nc3ccc(C)cc3F)c2cc1N1CCN(C[C@@H](O)CO)CC1 [Example 68, 6-{4-[(2R)-2,3-Dihydroxypropyl]piperazin-1-yl}-4-[(2-fluoro-4-methylphenyl)amino]-7-methoxycinnoline-3-carboxamide] |
| 52 | COc1cc2nnc(C(N)=O)c(Nc3ccc(C)cc3F)c2cc1CN1CCOCC1 [Example 73, 4-[(2-Fluoro-4-methylphenyl)amino]-7-methoxy-6-(morpholin-4-ylmethyl)cinnoline-3-carboxamide] |
